The subject of this assay is common mosquito (Culex pipiens pallens). Nature of the assay: Test Example 2: knock down test, forced contact with treated glass petri dish. The settings on record: 5 minutes after release, ten female adults, 3 min contact. It counts as in vivo. The procedure: Acetone-diluted solutions were prepared so that predetermined dosage of the Guanidine Compound and the ester compound B on glass plates indicated in Table 1 would be applied. The acetone-diluted solutions (0.5 ml) were treated on the underside of glass petri dishes with a diameter of 7 cm uniformly and air-dried. Ten female adults of common mosquito (Culex pipiens pallens) were collected by means of a pocket aspirator and placed into the petri dish, then contacted compulsorily with the treated underside of glass petri dishes by covering with a lucid plate made of polyvinyl chloride.
Three minutes after covering, said common mosquitoes were released in nyron cage (size: 16.5 cm×15.5 cm×22 cm). At a given period of time after releasing, the number of knocked down insects was counted and a knock down rate was calculated.

Each structure is given as a SMILES string.

Consider two compounds from patent publication US20130345266A1, “PEST CONTROL COMPOSITION AND PEST CONTROL METHOD” (SUMITOMO CHEMICAL COMPANY, LIMITED, priority 2011, published 2013).

On to `C/C=C\[C@@H]1[C@@H](C(=O)OCc2c(F)c(F)c(COC)c(F)c2F)C1(C)C` (relative stereo) [reference 4, 2,3,5,6-tetrafluoro-4-methoxymethylbenzyl=(1R)-trans-3-(1-propenyl(Z))-2,2-dimethylcyclopropanecarboxylate], for which the “Knock down rate (%) after 5 minutes” value is recorded as 10% (ester compound B alone 0.000125 mg/plate) and 20% (ester compound B alone 0.00025 mg/plate).
For the compound `CN/C(=N\[N+](=O)[O-])NCc1cnc(Cl)s1` [reference 1, (E)-1-(2-chloro-1,3-thiazol-5-ylmethyl)-3-methyl-2-nitroguanidine], the “Knock down rate (%) after 5 minutes” value is recorded as 10% (Guanidine Compound alone 0.000125 mg/plate), 10% (Guanidine Compound alone 0.00025 mg/plate), 10% (Guanidine Compound alone 0.0005 mg/plate) and 20% (Guanidine Compound alone 0.00125 mg/plate).
